Reference: PMC4552634, “A New Set of Chemical Starting Points with Plasmodium falciparum Transmission-Blocking Potential for Antimalarial Drug Discovery” (PLoS ONE, 2015)
Like-named read-outs stand apart in the source and are kept apart here.

Legend:
HepG2 cells = assay: Cytotoxicity in HepG2 cells (intracellular ATP, ATPlite, 48 h); assay type: cell-based, human; conditions: HepG2 cells; IC50 per ratio column head; unit inferred
[1] = system: luciferase reaction (BacTiter-Glo); assay: Interference assay (inhibition of the BacTiter-Glo luciferase reaction); assay type: biochemical; parameters: concentration or dose not given beside the values; conditions: ATP interference assay
Description: To discard possible false-positive results, we performed an interference assay in parallel. […] […]. The ATP solution was made by dissolving ATP powder (ATP standard from the ATPlite 1 step assay kit, reference 6016731, Perkin Elmer) in culture medium. The positive control used was the Luciferase Inhibitor I Calbiochem (Merck, 119113) at 100 μM.

[2] = system: P. falciparum stage V gametocytes; assay: Gametocytocidal ATP bioluminescence assay (single point 5 μM and 1 μM, dose-response); assay type: cell-based, Plasmodium falciparum; conditions: for Ratio IC50 HepG2/IC50 P. falciparum: IC50 HepG2 divided by IC50 P. falciparum gametocytes
[3] = system: P. falciparum asexual stages; conditions: asexual stages; TCAMS data; read-out: IC50 asexual; cited from earlier work
[4] = P. falciparum gametocytes, average, read-out: IC50 Pf Gametocytes average, IC50 (µM) average
[5] = sexual stages (gametocytes), dose-response, read-out: IC50 sexual

Structure (SMILES)	% Control luminiscence [1] [%]	IC50 (HepG2 cells) [µM]	Ratio IC50 HepG2/IC50 P. falciparum [2]	IC50 [2, 4] [µM]	IC50 [2, 5] [µM]	IC50 [3] [nM]
Cc1cc(OCCN2CCCCC2)ccc1NC(=O)c1cccc2c(=O)n(Cc3ccc(Cl)cc3)cnc12 [TCMDC-136727]	97	4.73	5	0.95		1060
Cc1nn(CC(C)C)c2sc(C(=O)N3CCN(S(=O)(=O)c4ccc(C#N)cc4)CC3)cc12 [TCMDC-125045]	92	> 25	>12	2.09	2.09	739
COc1ccc(OC)c(-c2cccc(-c3cccc(NC(=O)c4ccc([N+](=O)[O-])o4)c3)n2)c1 [TCMDC-124799]	100	6.15	8	0.78		371
Cc1occc1C(=O)Nc1nc(-c2ccccn2)nc2ccsc12 [TCMDC-135244]	99	< 1.56	<5	0.3	0.303	899
Nc1ncc(-c2ccc3nccc(-c4ccncc4)c3c2)cc1S(=O)(=O)N1CCOCC1 [TCMDC-134180]	100	> 25	>3	6.9		872
Fc1ccc(OC2CN(c3nccc(NCc4ccccc4Cl)n3)C2)cc1 [TCMDC-135110]	98	> 25	>10	2.51	2.51	898
c1ccc(CSC2=NNC(c3ccccn3)S2)cc1 (stereo not shown) [TCMDC-123769]	100	> 25	>3	7.98	7.98	1480

Continued, in another order:

% Control luminiscence [1] [%]	Structure (SMILES)	IC50 (HepG2 cells) [µM]	Ratio IC50 HepG2/IC50 P. falciparum [2]	IC50 [2, 4] [µM]	IC50 [2, 5] [µM]	IC50 [3] [nM]
96	CC(C)CNCc1cccc(-c2cccc(CN(CCCN3CCN(C)CC3)C(=O)NC3CCCCC3)c2)c1 [TCMDC-140633]	16.8	9	1.78	1.78	761
93	O=C(Nc1ccc(Oc2ccccc2)cc1)N(CCN1CCCC1)Cc1ccc(-c2ccc(CN3CCNCC3)cc2)cc1 [TCMDC-139652]	7.08	7	1.02	1.01	892
100	CC(C)CNCc1ccc(-c2cccc(CN(CCN(C)C)C(=O)CCC3CCCC3)c2)cc1 [TCMDC-140553]	5.5	10	0.54		809
100	COc1ccccc1-c1cccc(-c2cccc(NC(=O)c3ccc([N+](=O)[O-])o3)c2)n1 [TCMDC-124800]	11.5	7	1.66	1.66	603
100	CC(C)CNCc1cccc(-c2ccc(CN(CCCN3CCN(C)CC3)C(=O)/C=C/c3ccccc3)cc2)c1 [TCMDC-140545]	6.65	11	0.63		857
100	CC(C)CC(=O)N(Cc1ccc(-c2ccc(CNC3Cc4ccccc4C3)cc2)cc1)C1CCNCC1 [TCMDC-141449]	6.2	10	0.63	0.633	1170
100	COc1ccc(CNC2Cc3ccccc3C2)cc1-c1ccc(S(=O)(=O)NCCN2CCCC2)cc1 [TCMDC-132248]	8.28	6	1.38	1.38	582
